# Assay results published in PubChem BioAssay (NCI).
#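 96-well plates; 48 h exposure; 5 concentrations. Endpoints by linear interpolation between flanking doses. Not reached: highest tested concentration assigned. GI50 is the concentration that inhibits growth by half. The concentration for full growth arrest is given as TGI.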
# Legend:
# Assay in all cases: NCI tumour cell line growth inhibition, 48 h
# XF 498 CNS = system: XF 498 CNS
# LXFL 529 NSCLC = system: LXFL 529 NSCLC
# RXF-631 renal = system: RXF-631 renal
# DLD-1 colon = system: DLD-1 colon
# HS 578T breast = system: HS 578T breast
# MCF7 breast = system: MCF7 breast
# MDA-N = system: MDA-N
# DU-145 prostate = system: DU-145 prostate
# T-47D breast = system: T-47D breast
Structure (SMILES),TGI (XF 498 CNS) [µM],TGI (LXFL 529 NSCLC) [µM],TGI (RXF-631 renal) [µM],TGI (DLD-1 colon) [µM],also measured
O=C1c2cccc3cc([N+](=O)[O-])cc(c23)C(=O)N1CCCN1CCN(CCCN2C(=O)c3cccc4cc([N+](=O)[O-])cc(c34)C2=O)CC1,4.06,> 100,3.21,> 100,
COc1ccc(/C=[N+](\[O-])[C@H](COCc2ccccc2)c2ccccc2)cc1,> 100,> 100,> 100,> 100,
Cc1ccc(C)c(NC(=O)/C(=N\NC(N)=S)C(C#N)c2ccccc2)c1 (stereo unspecified),> 100,> 100,,> 100,
CC(SC1=CC(=O)c2c(O)ccc(O)c2C1=O)C(=O)O (stereo unspecified),> 82.2,> 51.6,> 100,> 57.1,
CC(=O)O/C(C)=C\C(=O)O/N=C(\N)c1ccc(C)cc1,> 100,59.9,61.1,50.9,
COc1cccc2c1C1=CC(=O)CCC1C(C)(C)O2 (stereo unspecified),,> 100,> 100,> 100,
CCCN(CCC)c1c([N+](=O)[O-])cc(S(N)(=O)=O)cc1[N+](=O)[O-],30.2,30,35.5,34.9,
Cn1cc(NC(=O)c2cc(NC(=O)CCCCCC(=O)Nc3cc(C(=O)Nc4cc(C(=O)NCCC(=N)N)n(C)c4)n(C)c3)cn2C)cc1C(=O)NCCC(=N)N,> 100,> 100,> 100,> 100,
CCOC(=O)/C=C(/CN1C(=O)c2ccccc2C1=O)c1ccccc1,> 100,> 100,,> 100,
COc1cc2ccc3c4cc(OC)c(OCc5ccccc5)cc4cnc3c2cc1OC,> 100,> 100,,> 100,
CCCCCCCCCCCC(=O)C1=C(O)C(O)CCC1=O (stereo unspecified),26.4,53.9,,> 100,
CC1(C)OC2C(=O)OC(COCc3ccccc3)C2O1 (stereo unspecified),,> 100,> 100,> 100,
Cn1c(=O)c2c(nc3n2CCC(=O)N3)n(C)c1=O,,> 100,> 100,> 100,
Cc1ccc(S(=O)(=O)ON/N=C2/C3OC3[C@@H]3CCCC[C@H]23)cc1 (stereo partly specified),> 100,> 100,,> 100,
C=CCN(N=O)C(=O)N(CCC)CCCC(NC(C)=O)C(=O)NCc1ccccc1 (stereo unspecified),> 100,> 100,> 100,,
c1ccc(COc2ccc3[nH]c4c(ncc5[nH]c6ccccc6c54)c3c2)cc1,26.6,29.5,,17.7,
CCCCCCCCCCCCC(SCCNC(=O)CCNC(=O)C(O)C(C)(C)COP(=O)(O)OP(=O)(O)OCC1OC(n2cnc3c(N)ncnc32)C(O)C1OP(=O)(O)O)C(=O)NCC(N)=O (stereo unspecified),,> 100,> 100,> 100,
c1cc2c(cnc3cscc32)s1,> 100,,> 100,> 100,
Nc1ccc2c(c1)[O][Sn]([c]1ccccc1)([c]1ccccc1)[O]C2=O,,3.12,29.9,15.4,GI50 (HS 578T breast): 4.06 µM; TGI (HS 578T breast): 22.2 µM; GI50 (LXFL 529 NSCLC): 1.51 µM; GI50 (RXF-631 renal): 15.9 µM; GI50 (DLD-1 colon): 4.24 µM; GI50 (MCF7 breast): 3.95 µM; TGI (MCF7 breast): 8.52 µM; GI50 (MDA-N): 2.95 µM; TGI (MDA-N): 9.26 µM; GI50 (DU-145 prostate): 15.5 µM; TGI (DU-145 prostate): 28.9 µM
COC(=O)/C(=N/NC(C)(C)C)C(C(=O)C=C(C)C)C(=O)C(=O)Nc1ccc(Cl)cc1C (stereo unspecified),> 100,> 100,,,
CC(C)(C)N=CN1CCC(C(c2ccccc2)c2ccccc2)CC1,> 100,,,> 100,
Cc1c2ncccc2c(C)c2c1[nH]c1ccccc12,25.3,24.8,,23.2,
COc1ccc(N=Cc2ccc(N(CCC#N)CCC#N)cc2)cc1,> 100,> 84.5,,> 100,TGI (T-47D breast): > 100 µM; TGI (HS 578T breast): > 100 µM; TGI (MCF7 breast): > 100 µM; TGI (MDA-N): > 100 µM; TGI (DU-145 prostate): > 100 µM
O=C(N=Nc1c(O)[nH]c2ccccc12)c1ccccc1O,,> 100,,> 100,
CCOC(OC1=C(C#N)CCC1)C(CC)[Se]c1ccccc1 (stereo unspecified),49.7,48.5,,41.2,
Cc1cc2occ(C)c(=O)c2c2c1OC(C)(C)S2,> 100,> 100,,> 100,
CC(O)C(NC(=O)C(CS)NC(=O)C(CO)NC(=O)C(CCCCN)NC(=O)C(Cc1c[nH]c2ccccc12)NC(=O)C(Cc1ccc(O)cc1)NC(=O)C(CS)NC(=O)C(N)Cc1ccccc1)C(N)=O (stereo unspecified),53.8,,43.7,59.7,TGI (T-47D breast): > 25 µM; TGI (HS 578T breast): > 25 µM; TGI (MCF7 breast): > 25 µM; TGI (MDA-N): > 25 µM; TGI (DU-145 prostate): > 25 µM
c1c[nH]c(Cc2ncc(Cc3cnc[nH]3)[nH]2)n1,> 100,> 100,,> 100,
Cc1c(C(=O)CC(=O)C(=O)NC2C3CC4CC(C3)CC2C4)[n+](=O)c2ccccc2n1[O-] (stereo unspecified),> 100,> 100,> 100,,
